Laboratory results: ChEMBL document CHEMBL4507279, “Data for DCP probe BI-9627” (2021)

What was measured:
[1] = target: Interferon-induced, double-stranded RNA-activated protein kinase (Homo sapiens) (UniProt P19525); conditions: Compound concentration 1000.0 nM
[2] = target: Receptor-interacting serine/threonine-protein kinase 1 (Homo sapiens) (UniProt Q13546); conditions: Compound concentration 1000.0 nM
[3] = target: Serine/threonine-protein kinase Chk2 (Homo sapiens) (UniProt O96017); conditions: Compound concentration 1000.0 nM
[4] = target: Insulin receptor-related protein (Homo sapiens) (UniProt P14616); conditions: Compound concentration 1000.0 nM
[5] = target: Testis-specific serine/threonine-protein kinase 3 (Homo sapiens) (UniProt Q96PN8); conditions: Compound concentration 1000.0 nM
[6] = target: Myotonin-protein kinase (Homo sapiens) (UniProt Q09013); conditions: Compound concentration 1000.0 nM
[7] = target: 5-hydroxytryptamine receptor 2B (Homo sapiens) (UniProt P41595); conditions: Compound concentration 10.0 uM
[8] = target: Tyrosine-protein kinase ABL1 (Homo sapiens) (UniProt P00519); conditions: Compound concentration 1000.0 nM
[9] = target: Serine/threonine-protein kinase 35 (Homo sapiens) (UniProt Q8TDR2); conditions: Compound concentration 1000.0 nM
[10] = target: Dual specificity tyrosine-phosphorylation-regulated kinase 1A (Homo sapiens) (UniProt Q13627); conditions: Compound concentration 1000.0 nM
[11] = target: TGF-beta receptor type-1 (Homo sapiens) (UniProt P36897); conditions: Compound concentration 1000.0 nM
[12] = target: Fibroblast growth factor receptor 4 (Homo sapiens) (UniProt P22455); conditions: Compound concentration 1000.0 nM
[13] = tested on: Epidermal growth factor receptor (Homo sapiens), P00533 [L858R,T790M]; conditions: Compound concentration 1000.0 nM
[14] = target: Serine/threonine-protein kinase PknB (Mycobacterium tuberculosis) (UniProt P9WI81); conditions: Compound concentration 1000.0 nM
[15] = tested on: Hepatocyte growth factor receptor (Homo sapiens), P08581 [Y1235D]; conditions: Compound concentration 1000.0 nM
[16] = tested on: Receptor-type tyrosine-protein kinase FLT3 (Homo sapiens), P36888 [D835V]; conditions: Compound concentration 1000.0 nM
[17] = target: Dual specificity mitogen-activated protein kinase kinase 5 (Homo sapiens) (UniProt Q13163); conditions: Compound concentration 1000.0 nM
[18] = target: Protein-tyrosine kinase 2-beta (Homo sapiens) (UniProt Q14289); conditions: Compound concentration 1000.0 nM
[19] = tested on: Hepatocyte growth factor receptor (Homo sapiens), P08581 [M1250T]; conditions: Compound concentration 1000.0 nM
[20] = target: Phosphatidylinositol 3-kinase C2 domain-containing subunit gamma (Homo sapiens) (UniProt O75747); conditions: Compound concentration 1000.0 nM
[21] = target: Peripheral plasma membrane protein CASK (Homo sapiens) (UniProt O14936); conditions: Compound concentration 1000.0 nM
[22] = target: Histamine H4 receptor (Homo sapiens) (UniProt Q9H3N8); conditions: Compound concentration 10.0 uM
[23] = target: Serine/threonine-protein kinase TBK1 (Homo sapiens) (UniProt Q9UHD2); conditions: Compound concentration 1000.0 nM
[24] = tested on: Phosphatidylinositol 4,5-bisphosphate 3-kinase catalytic subunit alpha isoform (Homo sapiens), P42336 [H1047Y]; conditions: Compound concentration 1000.0 nM
[25] = target: STE20/SPS1-related proline-alanine-rich protein kinase (Homo sapiens) (UniProt Q9UEW8); conditions: Compound concentration 1000.0 nM
[26] = target: Dual specificity mitogen-activated protein kinase kinase 4 (Homo sapiens) (UniProt P45985); conditions: Compound concentration 1000.0 nM
[27] = target: Serine/threonine-protein kinase NLK (Homo sapiens) (UniProt Q9UBE8); conditions: Compound concentration 1000.0 nM
[28] = target: Tyrosine-protein kinase BTK (Homo sapiens) (UniProt Q06187); conditions: Compound concentration 1000.0 nM
[29] = target: Dual specificity mitogen-activated protein kinase kinase 7 (Homo sapiens) (UniProt O14733); conditions: Compound concentration 1000.0 nM
[30] = target: Receptor tyrosine-protein kinase erbB-4 (Homo sapiens) (UniProt Q15303); conditions: Compound concentration 1000.0 nM
[31] = target: Tyrosine-protein kinase ZAP-70 (Homo sapiens) (UniProt P43403); conditions: Compound concentration 1000.0 nM
[32] = target: Bone morphogenetic protein receptor type-1A (Homo sapiens) (UniProt P36894); conditions: Compound concentration 1000.0 nM
[33] = target: Ankyrin repeat and protein kinase domain-containing protein 1 (Homo sapiens) (UniProt Q8NFD2); conditions: Compound concentration 1000.0 nM
[34] = target: Serine/threonine-protein kinase 16 (Homo sapiens) (UniProt O75716); conditions: Compound concentration 1000.0 nM
[35] = target: Death-associated protein kinase 2 (Homo sapiens) (UniProt Q9UIK4); conditions: Compound concentration 1000.0 nM
[36] = target: TRAF2 and NCK-interacting protein kinase (Homo sapiens) (UniProt Q9UKE5); conditions: Compound concentration 1000.0 nM
[37] = target: MAP kinase-interacting serine/threonine-protein kinase 1 (Homo sapiens) (UniProt Q9BUB5); conditions: Compound concentration 1000.0 nM
[38] = target: Casein kinase I isoform alpha (Homo sapiens) (UniProt P48729); conditions: Compound concentration 1000.0 nM
[39] = target: Serine/threonine-protein kinase pim-2 (Homo sapiens) (UniProt Q9P1W9); conditions: Compound concentration 1000.0 nM
[40] = target: Serine/threonine-protein kinase haspin (Homo sapiens) (UniProt Q8TF76); conditions: Compound concentration 1000.0 nM
[41] = target: Bone morphogenetic protein receptor type-2 (Homo sapiens) (UniProt Q13873); conditions: Compound concentration 1000.0 nM
[42] = target: Death-associated protein kinase 1 (Homo sapiens) (UniProt P53355); conditions: Compound concentration 1000.0 nM
[43] = target: Serine/threonine-protein kinase WNK3 (Homo sapiens) (UniProt Q9BYP7); conditions: Compound concentration 1000.0 nM
[44] = target: High affinity nerve growth factor receptor (Homo sapiens) (UniProt P04629); conditions: Compound concentration 1000.0 nM
[45] = target: Phosphatidylinositol 3-kinase catalytic subunit type 3 (Homo sapiens) (UniProt Q8NEB9); conditions: Compound concentration 1000.0 nM

Chain of Dual specificity mitogen-activated protein kinase kinase 4 (Homo sapiens) (P45985 whole entry): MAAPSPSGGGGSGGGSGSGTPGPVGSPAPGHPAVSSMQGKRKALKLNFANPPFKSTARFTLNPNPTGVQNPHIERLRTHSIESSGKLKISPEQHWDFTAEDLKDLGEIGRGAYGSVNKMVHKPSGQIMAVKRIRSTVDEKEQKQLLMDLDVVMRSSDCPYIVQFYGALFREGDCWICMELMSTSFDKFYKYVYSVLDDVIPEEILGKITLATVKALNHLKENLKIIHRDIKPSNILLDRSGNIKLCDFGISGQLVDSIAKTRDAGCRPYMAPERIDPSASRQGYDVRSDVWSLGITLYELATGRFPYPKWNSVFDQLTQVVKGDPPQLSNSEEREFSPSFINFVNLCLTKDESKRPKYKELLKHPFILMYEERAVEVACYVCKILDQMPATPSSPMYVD
Chain of Serine/threonine-protein kinase WNK3 (Homo sapiens) (Q9BYP7 whole entry): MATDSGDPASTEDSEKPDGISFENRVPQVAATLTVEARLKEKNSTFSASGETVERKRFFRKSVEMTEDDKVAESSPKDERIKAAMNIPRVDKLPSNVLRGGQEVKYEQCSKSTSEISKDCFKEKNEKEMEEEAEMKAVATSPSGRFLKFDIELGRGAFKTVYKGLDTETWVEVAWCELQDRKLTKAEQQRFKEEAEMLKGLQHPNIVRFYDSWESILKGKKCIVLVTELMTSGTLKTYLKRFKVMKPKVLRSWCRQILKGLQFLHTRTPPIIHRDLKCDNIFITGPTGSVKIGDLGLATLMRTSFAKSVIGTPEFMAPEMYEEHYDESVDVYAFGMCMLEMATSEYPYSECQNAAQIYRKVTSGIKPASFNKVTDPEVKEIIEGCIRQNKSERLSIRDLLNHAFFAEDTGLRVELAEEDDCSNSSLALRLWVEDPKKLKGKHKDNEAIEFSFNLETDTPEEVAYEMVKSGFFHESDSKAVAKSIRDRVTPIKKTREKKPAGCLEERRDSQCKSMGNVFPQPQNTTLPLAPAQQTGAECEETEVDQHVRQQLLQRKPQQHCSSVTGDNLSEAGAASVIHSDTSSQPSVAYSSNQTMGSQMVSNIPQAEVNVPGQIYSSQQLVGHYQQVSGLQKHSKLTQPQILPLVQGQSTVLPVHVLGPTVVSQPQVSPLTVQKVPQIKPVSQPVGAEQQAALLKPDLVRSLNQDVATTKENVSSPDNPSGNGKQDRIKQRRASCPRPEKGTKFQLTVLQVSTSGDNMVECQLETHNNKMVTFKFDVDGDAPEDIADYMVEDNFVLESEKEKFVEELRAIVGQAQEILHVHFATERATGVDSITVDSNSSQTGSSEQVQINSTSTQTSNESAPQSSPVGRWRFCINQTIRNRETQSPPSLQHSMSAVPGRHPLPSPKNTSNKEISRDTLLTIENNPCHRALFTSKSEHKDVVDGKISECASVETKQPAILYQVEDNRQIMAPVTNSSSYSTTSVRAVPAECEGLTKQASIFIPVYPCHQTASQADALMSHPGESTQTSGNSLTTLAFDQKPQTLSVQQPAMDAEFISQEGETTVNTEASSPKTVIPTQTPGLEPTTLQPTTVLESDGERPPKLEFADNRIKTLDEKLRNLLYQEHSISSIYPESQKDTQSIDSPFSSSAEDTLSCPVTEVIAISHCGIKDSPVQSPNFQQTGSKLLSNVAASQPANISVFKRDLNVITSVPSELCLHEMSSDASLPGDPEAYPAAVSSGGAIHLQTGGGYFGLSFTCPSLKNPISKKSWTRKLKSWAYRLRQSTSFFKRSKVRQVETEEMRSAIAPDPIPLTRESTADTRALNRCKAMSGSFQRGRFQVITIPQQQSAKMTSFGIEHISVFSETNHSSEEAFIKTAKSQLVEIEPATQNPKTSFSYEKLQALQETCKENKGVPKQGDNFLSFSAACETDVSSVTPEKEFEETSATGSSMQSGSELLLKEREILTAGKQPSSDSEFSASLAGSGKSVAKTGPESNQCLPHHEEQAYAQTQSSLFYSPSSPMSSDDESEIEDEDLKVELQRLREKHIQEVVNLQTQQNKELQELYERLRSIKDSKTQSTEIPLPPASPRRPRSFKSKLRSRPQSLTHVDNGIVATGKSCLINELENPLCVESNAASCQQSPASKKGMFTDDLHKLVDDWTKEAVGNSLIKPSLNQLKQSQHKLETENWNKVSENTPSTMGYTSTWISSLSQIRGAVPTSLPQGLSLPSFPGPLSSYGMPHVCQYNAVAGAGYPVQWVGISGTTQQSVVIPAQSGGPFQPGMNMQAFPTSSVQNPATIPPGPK
Chain of Myotonin-protein kinase (Homo sapiens) (Q09013 whole entry): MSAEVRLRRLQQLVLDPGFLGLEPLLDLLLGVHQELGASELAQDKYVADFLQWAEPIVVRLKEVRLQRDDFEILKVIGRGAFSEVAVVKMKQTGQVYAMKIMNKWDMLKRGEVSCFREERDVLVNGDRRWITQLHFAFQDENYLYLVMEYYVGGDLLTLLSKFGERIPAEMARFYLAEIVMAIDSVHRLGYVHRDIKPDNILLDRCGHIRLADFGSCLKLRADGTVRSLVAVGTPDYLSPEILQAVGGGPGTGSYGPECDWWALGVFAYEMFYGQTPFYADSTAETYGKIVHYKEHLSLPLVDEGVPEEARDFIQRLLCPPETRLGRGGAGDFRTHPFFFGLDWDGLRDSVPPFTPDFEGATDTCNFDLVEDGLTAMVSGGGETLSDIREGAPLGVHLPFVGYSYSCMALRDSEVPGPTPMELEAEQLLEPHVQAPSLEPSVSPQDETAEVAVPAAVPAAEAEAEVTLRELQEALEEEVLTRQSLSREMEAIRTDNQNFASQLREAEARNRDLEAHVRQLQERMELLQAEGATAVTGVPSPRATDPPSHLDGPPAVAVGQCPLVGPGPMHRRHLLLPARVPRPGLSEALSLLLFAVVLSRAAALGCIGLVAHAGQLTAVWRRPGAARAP
Chain of Serine/threonine-protein kinase pim-2 (Homo sapiens) (Q9P1W9 whole entry, looked up): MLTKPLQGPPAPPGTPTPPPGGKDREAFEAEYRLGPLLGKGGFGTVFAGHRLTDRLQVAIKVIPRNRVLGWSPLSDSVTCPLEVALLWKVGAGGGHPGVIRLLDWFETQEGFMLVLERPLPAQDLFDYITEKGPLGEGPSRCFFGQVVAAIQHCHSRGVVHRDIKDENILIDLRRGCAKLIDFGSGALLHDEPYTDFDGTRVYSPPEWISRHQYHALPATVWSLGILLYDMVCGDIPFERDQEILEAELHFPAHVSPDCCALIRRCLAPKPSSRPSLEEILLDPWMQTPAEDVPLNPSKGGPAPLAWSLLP
Chain of Death-associated protein kinase 1 (Homo sapiens) (P53355 whole entry, looked up): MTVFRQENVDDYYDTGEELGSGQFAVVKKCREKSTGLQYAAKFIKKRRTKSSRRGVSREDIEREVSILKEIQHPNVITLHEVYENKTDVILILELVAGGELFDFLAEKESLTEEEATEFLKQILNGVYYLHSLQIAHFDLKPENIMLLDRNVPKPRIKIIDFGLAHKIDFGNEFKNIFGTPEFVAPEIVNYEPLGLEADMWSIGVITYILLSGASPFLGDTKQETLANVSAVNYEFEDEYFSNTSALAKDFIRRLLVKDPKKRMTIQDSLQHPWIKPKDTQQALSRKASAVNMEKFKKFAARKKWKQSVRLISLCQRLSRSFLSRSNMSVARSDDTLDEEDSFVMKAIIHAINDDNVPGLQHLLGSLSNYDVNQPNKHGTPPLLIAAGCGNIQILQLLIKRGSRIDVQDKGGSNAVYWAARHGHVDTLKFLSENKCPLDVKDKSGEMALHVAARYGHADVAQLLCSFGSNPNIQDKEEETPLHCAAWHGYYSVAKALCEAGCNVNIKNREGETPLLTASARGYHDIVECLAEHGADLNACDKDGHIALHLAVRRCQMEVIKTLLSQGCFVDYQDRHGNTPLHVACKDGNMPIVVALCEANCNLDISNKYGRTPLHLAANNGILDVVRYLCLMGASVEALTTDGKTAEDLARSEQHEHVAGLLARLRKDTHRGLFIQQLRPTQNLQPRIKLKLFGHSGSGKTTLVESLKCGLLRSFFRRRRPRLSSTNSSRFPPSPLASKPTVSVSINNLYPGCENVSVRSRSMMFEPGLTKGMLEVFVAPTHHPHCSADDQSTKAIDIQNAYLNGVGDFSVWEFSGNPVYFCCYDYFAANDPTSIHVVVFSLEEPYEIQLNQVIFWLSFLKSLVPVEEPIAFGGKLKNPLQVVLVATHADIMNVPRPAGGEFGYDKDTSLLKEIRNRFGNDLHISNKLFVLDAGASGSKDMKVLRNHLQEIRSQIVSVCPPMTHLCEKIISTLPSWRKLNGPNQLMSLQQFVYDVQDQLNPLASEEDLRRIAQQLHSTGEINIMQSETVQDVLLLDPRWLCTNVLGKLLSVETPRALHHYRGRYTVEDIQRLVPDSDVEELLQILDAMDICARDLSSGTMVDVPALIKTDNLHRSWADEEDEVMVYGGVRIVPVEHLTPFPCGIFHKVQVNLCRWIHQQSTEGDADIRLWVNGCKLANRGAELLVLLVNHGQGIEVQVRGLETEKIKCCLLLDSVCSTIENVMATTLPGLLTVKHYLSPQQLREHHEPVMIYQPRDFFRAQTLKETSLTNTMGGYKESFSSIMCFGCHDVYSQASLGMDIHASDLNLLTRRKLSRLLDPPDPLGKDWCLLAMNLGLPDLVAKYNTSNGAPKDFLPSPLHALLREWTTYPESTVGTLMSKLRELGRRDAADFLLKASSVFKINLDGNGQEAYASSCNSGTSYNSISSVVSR
Chain of TGF-beta receptor type-1 (Homo sapiens) (P36897 whole entry): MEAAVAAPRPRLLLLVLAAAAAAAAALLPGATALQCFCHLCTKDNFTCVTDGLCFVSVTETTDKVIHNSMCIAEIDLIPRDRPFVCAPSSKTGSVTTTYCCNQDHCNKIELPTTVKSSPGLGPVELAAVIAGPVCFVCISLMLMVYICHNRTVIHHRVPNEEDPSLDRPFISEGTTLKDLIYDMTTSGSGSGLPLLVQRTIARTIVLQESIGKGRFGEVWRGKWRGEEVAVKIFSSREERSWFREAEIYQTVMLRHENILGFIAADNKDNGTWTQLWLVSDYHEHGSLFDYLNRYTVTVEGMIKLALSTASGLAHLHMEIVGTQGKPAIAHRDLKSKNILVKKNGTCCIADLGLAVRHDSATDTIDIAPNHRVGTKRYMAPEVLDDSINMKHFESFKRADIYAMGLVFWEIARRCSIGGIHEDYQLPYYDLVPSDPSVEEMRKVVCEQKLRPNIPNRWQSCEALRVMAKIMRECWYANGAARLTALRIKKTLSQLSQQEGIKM

CC(=O)N1CCC(c2ccc(C(=O)NC(=N)N)cc2C(F)(F)F)CC1 [BI 9627]
inactive: residual activity [1] 100% | residual activity [2] 100% | residual activity [3] 100% | residual activity [4] 100% | residual activity [5] 100% | residual activity [6] 100% | inhibition [7] -8.79% | residual activity [8] 93% | residual activity [9] 100% | residual activity [10] 74% | residual activity [11] 100% | residual activity [12] 100% | residual activity [13] 100% | residual activity [14] 100% | residual activity [15] 100% | residual activity [16] 92% | residual activity [17] 86% | residual activity [18] 100% | residual activity [19] 100% | residual activity [20] 100% | residual activity [21] 100% | inhibition [22] 7.11% | residual activity [23] 100% | residual activity [24] 100% | residual activity [25] 90% | residual activity [26] 95% | residual activity [27] 100% | residual activity [28] 100% | residual activity [29] 86% | residual activity [30] 100% | residual activity [31] 100% | residual activity [32] 100% | residual activity [33] 100% | residual activity [34] 100% | residual activity [35] 100% | residual activity [36] 100% | residual activity [37] 100% | residual activity [38] 92% | residual activity [39] 100% | residual activity [40] 100% | residual activity [41] 100% | residual activity [42] 100% | residual activity [43] 84% | residual activity [44] 100% | residual activity [45] 100%

CC(=O)N1CCC(c2ccc(C(=O)NC3=NCCN3)cc2C(F)(F)F)CC1 [BI 0054]
inactive: residual activity [1] 100% | residual activity [2] 100% | residual activity [3] 100% | residual activity [4] 81% | residual activity [5] 100% | residual activity [6] 100% | inhibition [7] -2.75% | residual activity [8] 95% | residual activity [9] 100% | residual activity [10] 74% | residual activity [11] 100% | residual activity [12] 88% | residual activity [13] 100% | residual activity [14] 100% | residual activity [15] 100% | residual activity [16] 97% | residual activity [17] 92% | residual activity [18] 100% | residual activity [19] 84% | residual activity [20] 85% | residual activity [21] 85% | inhibition [22] 9.81% | residual activity [23] 98% | residual activity [24] 100% | residual activity [25] 100% | residual activity [26] 100% | residual activity [27] 100% | residual activity [28] 97% | residual activity [29] 100% | residual activity [30] 100% | residual activity [31] 97% | residual activity [32] 100% | residual activity [33] 100% | residual activity [34] 100% | residual activity [35] 100% | residual activity [36] 68% | residual activity [37] 100% | residual activity [38] 76% | residual activity [39] 100% | residual activity [40] 78% | residual activity [41] 100% | residual activity [42] 100% | residual activity [43] 86% | residual activity [44] 100% | residual activity [45] 88%
